Laboratory results published in patent US20160222432A1, “TEST STRIP USING FORMALDEHYDE OR PEROXIDE, FROM AMONG SARCOSINE METABOLITES, FOR DIAGNOSING PROSTATE CANCER, AND METHOD FOR DIAGNOSING PROSTATE CANCER USING SAME” (CSQUARE CO., LTD, priority 2013, published 2016).

Tested on: sarcosine oxidase
Assay: Influence of metal ions (metal chloride salts) on sarcosine oxidase activity
Format: biochemical
Conditions: sarcosine oxidase activity with metal chloride salt, final concentration 2 mM, None = 100
Protocol: As shown in the following Table 1, activity of the sarcosine oxidase was greatly influenced by metal ions. Since metal ions were inevitably contained in the sample, EDTA was added at 0.01 to 0.02 g/dL to chelate the metal ions and to prevent activity of the sarcosine oxidase from decreasing due to the metal ions. In this case, when an amount of EDTA added was small, the metal ions were not sufficiently removed. […] In the present example, EDTA4NA was used. However, another substance that can chelate the metal ions could be used. Then, AHMT serving as a chromogen was dissolved at 20 to 50 mM. In this case, when an amount of the reagent added was small, there was no difference in color development between specimens of an intermediate concentration and a high concentration. On the other hand, when an amount of the reagent added was large, discoloration was caused in a natural state, which caused a change in a product or a false positive result.
As shown in the following Table 2, activity of the sarcosine oxidase is greatly influenced by metal ions. When an excessive amount of metal ions was contained in the sample, EDTA was added at 0.01 to 0.02 g/dL in order to chelate and remove the metal ions and prevent activity of the sarcosine oxidase from decreasing due to the metal ions. That is, EDTA serves as a metal adsorber and facilitates activation of the enzymes. In the present example, EDTA4NA was used. However, another substance that can chelate the metal ions could be used. When an amount of EDTA added was small, the metal ions were not sufficiently removed.

| Structure (SMILES) | Relative activity (%) (Table 1 (first example)) | Relative activity (%) (Table 2 (second example)) |
| --- | --- | --- |
| [Cl-].[Cl-].[Co+2] [Co^2+] | 52% | 52% |
| [Cl][Mn][Cl] [Mn^2+] | 63% | 63% |
| [Cl][Ni][Cl] [Ni^2+] | 76% | 76% |
| [Cl][Fe][Cl] [Fe^2+] | 66% | 66% |
| [Cl][Cd][Cl] [Cd^2+] | 7% | 7% |
| [Cl][Cu][Cl] [Cu^2+] | 0% | 0% |
| [Cl-].[Cl-].[Zn+2] [Zn^2+] | 7% | 7% |
| [Cl][Hg][Cl] [Hg^2+] | 0% | 0% |
